Assay results from patent publication US5919668A, “Non-reducing saccharide and its production and use” (Kabushiki Kaisha Hayashibara Seibutsu Kagaku Kenkyujo, priority 1994, dated 1999).
Entries after “also recorded” stand apart in the source; their conditions may differ.

Columns and labels:
mice = assay: Acute toxicity test, oral administration in mice; assay type: in vivo; settings: for LD50: mouse, in vivo, po; for Animal death at the possible highest dose: oral, mice
Description: Acute toxicity tests were conducted on the non-reducing saccharide preparations PI, PII, PIII, PIV and PV prepared in Experiment 4, where they were orally administered to 7 week-old dd mice. […] Thus the LD50 of these saccharides was at least 50 g/kg or higher.
An acute toxicity test was conducted on a high-purity trehalose preparation obtained by the method in Experiment 17, purity of 99.5%, where it was orally administered in mice. […] Thus its LD50 would be briefly 50 g/kg or higher.

[1] = Reducing power by the Somogyi-Nelson method, represented in terms of DE; assay type: physicochemical; settings: high-purity preparations, Somogyi-Nelson method
Description: The high-purity preparations of the newly formed saccharides were determined for reducing power by the Somogyi-Nelson method and represented in terms of DE.

[2] = test system: pig pancreas alpha-amylase; assay: Degradation by pig pancreas alpha-amylase; assay type: biochemical; settings: for G1 (glucose) in degradation product by alpha-amylase / G2 (maltose) in degradation product by alpha-amylase / G3 (maltotriose) in degradation product by alpha-amylase / PI in degradation product by alpha-amylase / PII in degradation product by alpha-amylase: pH6.9, 37° C., 18 hours
Description: (§1) The non-reducing saccharide preparations PI, PII, PIII, PIV and PV as substrates prepared in Experiment 4 were subjected to pig pancreas alpha-amylase, rice alpha-glucosidase and acetone-pulverized rat small intestine enzyme, all of which were products of Sigma Chemical Co., St Louis, Mo., USA, and the degradation products were analyzed on high-performance liquid chromatography for saccharide composition. The reaction by alpha-amylase was carried out by dissolving 10 mg of either substrate in 1 ml of 50 mM phosphate buffer (pH6.9), adding thereto one unit of alpha-amylase and incubating at 37° C. for 18 hours. The reaction by alpha-glucosidase was conducted similarly as in the case of alpha-amylase except that 50 mM acetate buffer (pH4.0) was used. In the case of acetone-pulverized rat small intestine enzyme, the reaction was conducted similarly as in the case of alpha-amylase except that 50 mM maleic acid buffer (pH6.0) was used.

rice alpha-glucosidase = assay: Degradation by rice alpha-glucosidase; assay type: biochemical; settings: for Glucose in degradation product by alpha-glucosidase / Others in degradation product by alpha-glucosidase / Trehalose in degradation product by alpha-glucosidase: pH4.0, 37° C., 18 hours
Description: as §1

[3] = molecular target: T1, trehalose-releasing enzyme (Rhizobium sp. M-11, UniProt Q53238); assay type: biochemical, Rhizobium species M-11; settings: for Composition: trehalose formed / Composition: reducing saccharide formed: 20% substrate, 2 units/g, 40° C., pH7.0, 48 hours; for Composition: reducing saccharide formed: glucose, maltose, maltotriose, maltotetraose or maltopentaose respectively; for Composition: residual substrate: trehalose-releasing enzyme, 48 h, pH 7
T1 construct: M-11, about 58-68 kDa
T1 sequence (Q53238 1-596): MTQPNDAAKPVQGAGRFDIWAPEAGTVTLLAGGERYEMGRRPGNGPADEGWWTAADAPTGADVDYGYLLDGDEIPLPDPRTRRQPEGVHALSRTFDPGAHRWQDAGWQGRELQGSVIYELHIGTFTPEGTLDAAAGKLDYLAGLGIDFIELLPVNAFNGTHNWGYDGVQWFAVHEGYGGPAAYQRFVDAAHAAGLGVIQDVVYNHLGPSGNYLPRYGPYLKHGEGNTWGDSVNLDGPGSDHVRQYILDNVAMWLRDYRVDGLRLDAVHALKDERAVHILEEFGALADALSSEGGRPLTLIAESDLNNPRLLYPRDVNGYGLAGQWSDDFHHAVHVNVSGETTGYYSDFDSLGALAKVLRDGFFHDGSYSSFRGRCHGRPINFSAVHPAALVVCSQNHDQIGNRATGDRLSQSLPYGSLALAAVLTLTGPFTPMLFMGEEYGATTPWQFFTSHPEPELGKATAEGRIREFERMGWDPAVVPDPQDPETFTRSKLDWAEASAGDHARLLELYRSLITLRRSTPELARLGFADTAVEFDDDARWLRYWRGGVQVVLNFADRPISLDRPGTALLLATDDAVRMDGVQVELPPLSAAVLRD
Description: Alpha-glycosyl trehaloses as substrates were prepared in accordance with the method described in Japanese Patent Application No. 349,216/93. More particularly, 20% aqueous solutions of maltotriose, maltotetraose, maltopentaose, maltohexaose or maltoheptaose as reducing partial starch hydrolysate were added with 2 units/g substrate solid of a purified non-reducing saccharide-forming enzyme obtained by the method in […], reacted at 40° C. and pH7.0 for 48 hours, heated for inactivation, filtered, deionized, concentrated in conventional manner and applied to ion exchange column chromatography on a strongly-acidic cation exchange "XT-1016" in sodium form. The ion exchange resin was packed in 3 jacketed-stainless steel columns, inner diameter of 2.0 cm, length of 1 m, and the columns were cascaded, loaded with 5 v/v % reaction saccharide liquid against the resin and injected with 55° C. water at SV0.13 for fractionation while keeping the temperature inside the columns at 55° C., thus obtaining high-purity preparations of non-reducing saccharides with glucose polymerization degrees of 3 or higher.
20% Aqueous solutions of these five types of non-reducing saccharides or alpha-glycosyl trehaloses were prepared, added with 2 units/g substrate solid of the purified trehalose-releasing enzyme obtained in Experiment 15, reacted at 40° C. and pH7.0 for 48 hours, deionized and subjected to high-performance liquid chromatography on "WAKO BEADS WB-T-330" for analysis of reaction products. As control, maltotriose, maltotetraose, maltopentaose, maltohexaose and maltoheptaose were subjected to the purified trehalose-releasing enzyme similarly as above and then analyzed on high-performance liquid chromatography.

glucoamylase = assay: Enzymatic hydrolysis by glucoamylase; assay type: biochemical; settings: for Molar ratio (glucose/trehalose): degradation product by glucoamylase; for Glucose in degradation product by glucoamylase / Trehalose in degradation product by glucoamylase: pH4.5, 40° C., 6 hours
Description: Fifty milligrams of the non-reducing saccharide preparation PI, PII, PIII, PIV or PV prepared in Experiment 4 was dissolved in 1 ml of 50 mM acetate buffer (pH4.5), added with one unit of the glucoamylase commercialized by Seikagaku Corp., Tokyo, Japan, incubated at 40° C. for 6 hours for enzymatic hydrolysis and analyzed for degradation products on high-performance liquid chromatography, thus detecting glucose and trehalose as sole products. The noted glucose contents, trehalose contents and their molar ratios were as shown in Table 5.

[4] = test system: acetone-pulverized rat small intestine enzyme; assay: Degradation by acetone-pulverized rat small intestine enzyme; assay type: biochemical; settings: for Glucose in degradation product by acetone-powdered rat small intestine enzyme / Others in degradation product by acetone-powdered rat small intestine enzyme / Trehalose in degradation product by acetone-powdered rat small intestine enzyme: pH6.0, 37° C., 18 hours
Description: as §1

beta-amylase = assay: Degradation by beta-amylase; assay type: biochemical
From the text: Considering the reaction characteristics of glucoamylase, these saccharides very likely bear structures where glucose molecule(s) is bound to trehalose molecule via alpha1,4 or alpha-1,6 linkage: Saccharide PI is a non-reducing saccharide with a glucose polymerization degree of 3 where one glucose molecule is bound to one trehalose molecule; saccharide PII, another non-reducing saccharide with a glucose polymerization degree of 4 where two glucose molecules are bound to one trehalose molecule; saccharide PIII, still another non-reducing saccharide with a glucose polymerization degree of 5 where three glucose molecules are bound to one trehalose molecule; saccharide PIV, still another non-reducing saccharide with a glucose polymerization degree of 6 where four glucose molecules are bound to one trehalose molecule; and saccharide PV, still another non-reducing saccharide with a polymerization degree of 7 where five glucose molecules are bound to one trehalose molecule.

Row | SMILES | LD50 (mice) | Animal death at the possible highest dose (mice) | DE of saccharide preparation [1] | Degradation by alpha-amylase (in words) [2] | G1 (glucose) in degradation product by alpha-amylase [2] | G2 (maltose) in degradation product by alpha-amylase [2] | G3 (maltotriose) in degradation product by alpha-amylase [2] | PI in degradation product by alpha-amylase [2] | PII in degradation product by alpha-amylase [2] | Degradation by alpha-glucosidase (in words) (rice alpha-glucosidase) | Glucose in degradation product by alpha-glucosidase (rice alpha-glucosidase) | Others in degradation product by alpha-glucosidase (rice alpha-glucosidase) | Trehalose in degradation product by alpha-glucosidase (rice alpha-glucosidase) | Composition: trehalose formed [3] | Composition: reducing saccharide formed [3] | Composition: residual substrate [3] | Degradation by glucoamylase (in words) (glucoamylase) | Molar ratio (glucose/trehalose) (glucoamylase) | Glucose in degradation product by glucoamylase (glucoamylase) | Trehalose in degradation product by glucoamylase (glucoamylase) | other results
1 | OC[C@H]1O[C@H](O[C@H]2O[C@H](CO)[C@@H](O[C@H]3O[C@H](CO)[C@@H](O[C@H]4O[C@H](CO)[C@@H](O[C@H]5O[C@H](CO)[C@@H](O[C@H]6O[C@H](CO)[C@@H](O[C@H]7O[C@H](CO)[C@@H](O)[C@H](O)[C@H]7O)[C@H](O)[C@H]6O)[C@H](O)[C@H]5O)[C@H](O)[C@H]4O)[C@H](O)[C@H]3O)[C@H](O)[C@H]2O)[C@H](O)[C@@H](O)[C@@H]1O [PV, alpha-maltopentaosyl trehalose] | at least 50 g/kg | no animal death was observed | 0.23 | degraded by alpha-amylase into smaller oligosaccharides; also recorded: yields non-reducing saccharide PII and maltotriose as predominant products | 1.0% | 8.6% | 35.3% | 10.2% | 44.9% | degradable | 71.4% | 0.3% | 28.3% | 29.1% | 70.6% | 0.3% | five glucose molecules and one trehalose molecule | 5.11 | 72.9% | 27.1% | Degradation by acetone-pulverized rat small intestine enzyme (in words) [4]: degradable; Glucose in degradation product by acetone-powdered rat small intestine enzyme [4]: 73.4%; Others in degradation product by acetone-powdered rat small intestine enzyme [4]: 0.1%; Trehalose in degradation product by acetone-powdered rat small intestine enzyme [4]: 26.5%; Degradation by beta-amylase (in words) (beta-amylase): two maltose molecules and one saccharide PI molecule
2 | OC[C@H]1O[C@H](O[C@H]2O[C@H](CO)[C@@H](O[C@H]3O[C@H](CO)[C@@H](O[C@H]4O[C@H](CO)[C@@H](O[C@H]5O[C@H](CO)[C@@H](O[C@H]6O[C@H](CO)[C@@H](O)[C@H](O)[C@H]6O)[C@H](O)[C@H]5O)[C@H](O)[C@H]4O)[C@H](O)[C@H]3O)[C@H](O)[C@H]2O)[C@H](O)[C@@H](O)[C@@H]1O [PIV, alpha-maltotetraosyl trehalose] | at least 50 g/kg | no animal death was observed | 0.27 | degraded by alpha-amylase into smaller oligosaccharides | 1.6% | 7.5% | 40.4% | 47.2% | 3.3% | degradable | 69.5% | 0.3% | 30.2% | 34.2% | 65.5% | 0.3% | four glucose molecules and one trehalose molecule | 4.09 | 68.3% | 31.7% | Degradation by acetone-pulverized rat small intestine enzyme (in words) [4]: degradable; Glucose in degradation product by acetone-powdered rat small intestine enzyme [4]: 68.8%; Others in degradation product by acetone-powdered rat small intestine enzyme [4]: 0.4%; Trehalose in degradation product by acetone-powdered rat small intestine enzyme [4]: 30.8%; Degradation by beta-amylase (in words) (beta-amylase): one maltose molecules and one saccharide PII molecule
